From publication PMC2931804 (Clinical cancer research : an official journal of the …, 2010)
Read-outs that look alike come from different tables or passages of the source.

[1] = DL1 500 mg twice daily × 3 + sLV5FU2, 1st cycle, n = 3
[2] = DL1 500 mg twice daily × 3 + sLV5FU2, Any cycle, n = 3
[3] = DL1 600 mg once daily × 3 + sLV5FU2, 1st cycle, n = 3
[4] = DL1 600 mg once daily × 3 + sLV5FU2, Any cycle, n = 3
[5] = DL2 600 mg twice daily × 3 + sLV5FU2, 1st cycle, n = 6
[6] = DL2 600 mg twice daily × 3 + sLV5FU2, Any cycle, n = 6
[7] = DL2 800 mg once daily × 3 + sLV5FU2, 1st cycle, n = 3
[8] = DL2 800 mg once daily × 3 + sLV5FU2, Any cycle, n = 3
[9] = DL3 800 mg twice daily × 3 + sLV5FU2, 1st cycle, n = 3
[10] = DL3 800 mg twice daily × 3 + sLV5FU2, Any cycle, n = 3

O=C(CCCCCCC(=O)Nc1ccccc1)NO [vorinostat, suberoylanilide hydroxamic acid]
Dose-limiting toxicities (800 mg vorinostat twice-daily dose level + sLV5FU2): Grade 3 fatigue and mucositis | Dose-limiting toxicities (2,000 mg vorinostat once-daily dose level + sLV5FU2): Grade 3 fatigue, and hand and foot syndrome | ATE, treatment-related, patients (G2/G3/G4) [1]: 0/0/0 | Anemia, treatment-related, patients (G2/G3/G4) [1]: 0/0/0 | Anorexia, treatment-related, patients (G2/G3/G4) [1]: 0/0/0 | Chelitis, treatment-related, patients (G2/G3/G4) [1]: 0/0/0 | Dehydration, treatment-related, patients (G2/G3/G4) [1]: 0/0/0 | Diarrhea, treatment-related, patients (G2/G3/G4) [1]: 1/0/0 | Esophagitis, treatment-related, patients (G2/G3/G4) [1]: 0/0/0 | Fatigue, treatment-related, patients (G2/G3/G4) [1]: 2/0/0 | Fever, treatment-related, patients (G2/G3/G4) [1]: 0/0/0 | Headache, treatment-related, patients (G2/G3/G4) [1]: 0/0/0 | Mucositis, treatment-related, patients (G2/G3/G4) [1]: 0/0/0 | Nausea, treatment-related, patients (G2/G3/G4) [1]: 1/0/0 | Neutropenia, treatment-related, patients (G2/G3/G4) [1]: 0/0/0 | Thrombocytopenia, treatment-related, patients (G2/G3/G4) [1]: 0/0/0 | VTE, treatment-related, patients (G2/G3/G4) [1]: 0/0/0 | Vomiting, treatment-related, patients (G2/G3/G4) [1]: 1/0/0 | ATE, treatment-related, patients (G2/G3/G4) [2]: 0/0/0 | Anemia, treatment-related, patients (G2/G3/G4) [2]: 0/0/0 | Anorexia, treatment-related, patients (G2/G3/G4) [2]: 2/0/0 | Chelitis, treatment-related, patients (G2/G3/G4) [2]: 0/0/0 | Dehydration, treatment-related, patients (G2/G3/G4) [2]: 0/0/0 | Diarrhea, treatment-related, patients (G2/G3/G4) [2]: 1/0/0 | Esophagitis, treatment-related, patients (G2/G3/G4) [2]: 1/0/0 | Fatigue, treatment-related, patients (G2/G3/G4) [2]: 3/0/0 | Fever, treatment-related, patients (G2/G3/G4) [2]: 1/0/0 | Headache, treatment-related, patients (G2/G3/G4) [2]: 0/0/0 | Mucositis, treatment-related, patients (G2/G3/G4) [2]: 1/0/0 | Nausea, treatment-related, patients (G2/G3/G4) [2]: 2/0/0 | Neutropenia, treatment-related, patients (G2/G3/G4) [2]: 0/0/0 | Thrombocytopenia, treatment-related, patients (G2/G3/G4) [2]: 0/0/0 | VTE, treatment-related, patients (G2/G3/G4) [2]: 0/0/0 | Vomiting, treatment-related, patients (G2/G3/G4) [2]: 1/0/0 | Anemia, treatment-related, patients (G2/G3/G4) [3]: 1/0/0 | Anorexia, treatment-related, patients (G2/G3/G4) [3]: 1/0/0 | DVT/PE, treatment-related, patients (G2/G3/G4) [3]: 0/0/0 | Dehydration, treatment-related, patients (G2/G3/G4) [3]: 0/0/0 | Diarrhea, treatment-related, patients (G2/G3/G4) [3]: 0/0/0 | Fatigue, treatment-related, patients (G2/G3/G4) [3]: 1/0/0 | GI bleed, treatment-related, patients (G2/G3/G4) [3]: 0/0/0 | Hand and Foot, treatment-related, patients (G2/G3/G4) [3]: 0/0/0 | Infection, treatment-related, patients (G2/G3/G4) [3]: 0/0/0 | Mucositis, treatment-related, patients (G2/G3/G4) [3]: 0/0/0 | Nausea, treatment-related, patients (G2/G3/G4) [3]: 1/0/0 | Neutropenia, treatment-related, patients (G2/G3/G4) [3]: 0/0/0 | Thrombocytopenia, treatment-related, patients (G2/G3/G4) [3]: 1/0/0 | Vomiting, treatment-related, patients (G2/G3/G4) [3]: 0/0/0 | Weight Loss, treatment-related, patients (G2/G3/G4) [3]: 0/0/0 | Anemia, treatment-related, patients (G2/G3/G4) [4]: 1/0/0 | Anorexia, treatment-related, patients (G2/G3/G4) [4]: 1/0/0 | Creatinine, treatment-related, patients (G2/G3/G4) [4]: 1/0/0 | DVT/PE, treatment-related, patients (G2/G3/G4) [4]: 0/0/0 | Dehydration, treatment-related, patients (G2/G3/G4) [4]: 1/0/0 | Diarrhea, treatment-related, patients (G2/G3/G4) [4]: 0/1/0 | Fatigue, treatment-related, patients (G2/G3/G4) [4]: 2/0/0 | GI bleed, treatment-related, patients (G2/G3/G4) [4]: 0/0/0 | Hand and Foot, treatment-related, patients (G2/G3/G4) [4]: 0/0/0 | Infection, treatment-related, patients (G2/G3/G4) [4]: 0/0/0 | Mucositis, treatment-related, patients (G2/G3/G4) [4]: 2/0/0 | Nausea, treatment-related, patients (G2/G3/G4) [4]: 1/0/0 | Neutropenia, treatment-related, patients (G2/G3/G4) [4]: 0/0/0 | Thrombocytopenia, treatment-related, patients (G2/G3/G4) [4]: 1/0/0 | Vomiting, treatment-related, patients (G2/G3/G4) [4]: 1/0/0 | Weight Loss, treatment-related, patients (G2/G3/G4) [4]: 0/0/0 | DLT (DL1 (500 mg twice daily × 3) and DL2 (600 mg twice daily), three patients each): without any DLT | ATE, treatment-related, patients (G2/G3/G4) [5]: 0/0/0 | Anemia, treatment-related, patients (G2/G3/G4) [5]: 1/0/0 | Anorexia, treatment-related, patients (G2/G3/G4) [5]: 2/0/0 | Chelitis, treatment-related, patients (G2/G3/G4) [5]: 0/0/0 | Dehydration, treatment-related, patients (G2/G3/G4) [5]: 0/0/0 | Diarrhea, treatment-related, patients (G2/G3/G4) [5]: 1/0/0 | Esophagitis, treatment-related, patients (G2/G3/G4) [5]: 0/0/0 | Fatigue, treatment-related, patients (G2/G3/G4) [5]: 3/0/0 | Fever, treatment-related, patients (G2/G3/G4) [5]: 0/0/0 | Headache, treatment-related, patients (G2/G3/G4) [5]: 0/0/0 | Mucositis, treatment-related, patients (G2/G3/G4) [5]: 0/0/0 | Nausea, treatment-related, patients (G2/G3/G4) [5]: 3/0/0 | Neutropenia, treatment-related, patients (G2/G3/G4) [5]: 0/0/0 | Thrombocytopenia, treatment-related, patients (G2/G3/G4) [5]: 0/1/0 | VTE, treatment-related, patients (G2/G3/G4) [5]: 0/0/0 | Vomiting, treatment-related, patients (G2/G3/G4) [5]: 1/0/0 | ATE, treatment-related, patients (G2/G3/G4) [6]: 0/0/0 | Anemia, treatment-related, patients (G2/G3/G4) [6]: 1/1/0 | Anorexia, treatment-related, patients (G2/G3/G4) [6]: 2/0/0 | Chelitis, treatment-related, patients (G2/G3/G4) [6]: 0/0/0 | Dehydration, treatment-related, patients (G2/G3/G4) [6]: 2/0/0 | Diarrhea, treatment-related, patients (G2/G3/G4) [6]: 1/0/0 | Esophagitis, treatment-related, patients (G2/G3/G4) [6]: 0/0/0 | Fatigue, treatment-related, patients (G2/G3/G4) [6]: 3/1/0 | Fever, treatment-related, patients (G2/G3/G4) [6]: 0/0/1 | Headache, treatment-related, patients (G2/G3/G4) [6]: 0/1/0 | Mucositis, treatment-related, patients (G2/G3/G4) [6]: 0/0/0 | Nausea, treatment-related, patients (G2/G3/G4) [6]: 3/0/0 | Neutropenia, treatment-related, patients (G2/G3/G4) [6]: 0/0/0 | Thrombocytopenia, treatment-related, patients (G2/G3/G4) [6]: 0/0/1 | VTE, treatment-related, patients (G2/G3/G4) [6]: 0/0/0 | Vomiting, treatment-related, patients (G2/G3/G4) [6]: 1/0/0 | Patients with DLT (DL2 600 mg twice daily × 3 + sLV5FU2, six patients): None and without any DLT | Anemia, treatment-related, patients (G2/G3/G4) [7]: 1/0/0 | Anorexia, treatment-related, patients (G2/G3/G4) [7]: 1/0/0 | Creatinine, treatment-related, patients (G2/G3/G4) [7]: 1/0/0 | DVT/PE, treatment-related, patients (G2/G3/G4) [7]: 0/0/0 | Dehydration, treatment-related, patients (G2/G3/G4) [7]: 0/0/0 | Diarrhea, treatment-related, patients (G2/G3/G4) [7]: 0/0/0 | Fatigue, treatment-related, patients (G2/G3/G4) [7]: 1/0/0 | GI bleed, treatment-related, patients (G2/G3/G4) [7]: 0/0/0 | Hand and Foot, treatment-related, patients (G2/G3/G4) [7]: 0/0/0 | Infection, treatment-related, patients (G2/G3/G4) [7]: 0/0/0 | Mucositis, treatment-related, patients (G2/G3/G4) [7]: 0/0/0 | Nausea, treatment-related, patients (G2/G3/G4) [7]: 1/0/0 | Neutropenia, treatment-related, patients (G2/G3/G4) [7]: 0/0/0 | Thrombocytopenia, treatment-related, patients (G2/G3/G4) [7]: 1/0/0 | Vomiting, treatment-related, patients (G2/G3/G4) [7]: 0/0/0 | Weight Loss, treatment-related, patients (G2/G3/G4) [7]: 0/0/0 | Anemia, treatment-related, patients (G2/G3/G4) [8]: 1/0/0 | Anorexia, treatment-related, patients (G2/G3/G4) [8]: 2/0/0 | DVT/PE, treatment-related, patients (G2/G3/G4) [8]: 0/0/0 | Dehydration, treatment-related, patients (G2/G3/G4) [8]: 0/0/0 | Diarrhea, treatment-related, patients (G2/G3/G4) [8]: 1/0/0 | Fatigue, treatment-related, patients (G2/G3/G4) [8]: 2/0/0 | GI bleed, treatment-related, patients (G2/G3/G4) [8]: 0/0/0 | Hand and Foot, treatment-related, patients (G2/G3/G4) [8]: 0/0/0 | Infection, treatment-related, patients (G2/G3/G4) [8]: 0/0/0 | Mucositis, treatment-related, patients (G2/G3/G4) [8]: 0/0/0 | Nausea, treatment-related, patients (G2/G3/G4) [8]: 2/0/0 | Neutropenia, treatment-related, patients (G2/G3/G4) [8]: 0/0/0 | Thrombocytopenia, treatment-related, patients (G2/G3/G4) [8]: 1/0/0 | Vomiting, treatment-related, patients (G2/G3/G4) [8]: 0/0/0 | Weight Loss, treatment-related, patients (G2/G3/G4) [8]: 0/0/0 | ATE, treatment-related, patients (G2/G3/G4) [9]: 0/0/0 | Anemia, treatment-related, patients (G2/G3/G4) [9]: 0/0/0 | Anorexia, treatment-related, patients (G2/G3/G4) [9]: 1/0/0 | Chelitis, treatment-related, patients (G2/G3/G4) [9]: 1/0/0 | Dehydration, treatment-related, patients (G2/G3/G4) [9]: 2/0/0 | Diarrhea, treatment-related, patients (G2/G3/G4) [9]: 1/0/0 | Esophagitis, treatment-related, patients (G2/G3/G4) [9]: 1/0/0 | Fever, treatment-related, patients (G2/G3/G4) [9]: 0/0/0 | Headache, treatment-related, patients (G2/G3/G4) [9]: 0/0/0 | Nausea, treatment-related, patients (G2/G3/G4) [9]: 0/0/0 | Neutropenia, treatment-related, patients (G2/G3/G4) [9]: 0/0/0 | Thrombocytopenia, treatment-related, patients (G2/G3/G4) [9]: 3/0/0 | VTE, treatment-related, patients (G2/G3/G4) [9]: 0/0/0 | Vomiting, treatment-related, patients (G2/G3/G4) [9]: 0/0/0 | ATE, treatment-related, patients (G2/G3/G4) [10]: 0/0/1 | Anemia, treatment-related, patients (G2/G3/G4) [10]: 0/2/0 | Anorexia, treatment-related, patients (G2/G3/G4) [10]: 2/0/0 | Chelitis, treatment-related, patients (G2/G3/G4) [10]: 2/0/0 | Dehydration, treatment-related, patients (G2/G3/G4) [10]: 2/0/0 | Diarrhea, treatment-related, patients (G2/G3/G4) [10]: 0/1/0 | Esophagitis, treatment-related, patients (G2/G3/G4) [10]: 1/0/0 | Fatigue, treatment-related, patients (G2/G3/G4) [10]: 1/2/0 | Fever, treatment-related, patients (G2/G3/G4) [10]: 0/0/0 | Headache, treatment-related, patients (G2/G3/G4) [10]: 0/0/0 | Mucositis, treatment-related, patients (G2/G3/G4) [10]: 2/1/1
